US12590062B2, “PD-1/PD-L1 inhibitors” (Gilead Sciences, Inc., priority 2017, dated 2026)

Tests used:
PD-1/PD-L1 = PD-1/PD-L1 (Homo sapiens, UniProt Q9NZQ7); experiment: PD-1/PD-L1 biochemical protein-protein interaction assay (ALPHA); assay type: binding; conditions: 0.3 nM His tagged PD-L1, 2.5 nM biotinylated Fc-PD-1, 60 minutes at 25° C., read-out: IC50 PD-L1-PD-1 Alpha IC50-mono PD-L1-fcP-D1
Method in brief: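 Compounds are tested for blocking the PD-1/PD-L1 extracellular-domain interaction using an ALPHA bead assay, in which inhibition lowers the luminescent signal. Reactions run 60 min at 25° C with 0.3 nM His-PD-L1 and 2.5 nM biotinylated Fc-PD-1. IC50 values come from four-parameter fits.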

PD-1/PD-L1 interaction = target: T1, PD-1/PD-L1 interaction (Homo sapiens, UniProt Q9NZQ7); experiment: PD-1/PD-L1 NFAT reporter co-culture assay; assay type: cell-based; conditions: Jurkat PD-1 NFAT-luciferase cells co-cultured with aAPC-PD-L1 CHO cells, 6 hrs at 37° C.; read-out: EC50 NFAT Luciferase
T1 construct: expressed in transfected cells; host or cells: CHO cells (aAPC-PD-L1) co-cultured with Jurkat cells overexpressing PD-1 and an NFAT-luciferase reporter
T1 sequence (Q9NZQ7 19-290): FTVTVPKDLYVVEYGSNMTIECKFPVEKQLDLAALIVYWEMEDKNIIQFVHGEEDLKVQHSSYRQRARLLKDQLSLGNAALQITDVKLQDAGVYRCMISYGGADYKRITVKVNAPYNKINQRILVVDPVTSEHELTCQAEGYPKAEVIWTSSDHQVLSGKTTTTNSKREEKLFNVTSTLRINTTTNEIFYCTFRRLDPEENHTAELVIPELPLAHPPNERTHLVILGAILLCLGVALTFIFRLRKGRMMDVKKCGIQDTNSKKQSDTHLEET
Method in brief: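 Jurkat cells overexpressing PD-1 with NFAT-driven luciferase were mixed with compound in RPMI 1640/2% FBS and seeded onto overnight-plated CHO aAPC-PD-L1 cells expressing surface anti-CD3 and PD-L1. Co-culture ran 6 h at 37 °C; luminescence read with ONE-Glo; EC50 from four-parameter fit.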

Sequence of PD-1/PD-L1 (Q9NZQ7 19-238 limits assumed): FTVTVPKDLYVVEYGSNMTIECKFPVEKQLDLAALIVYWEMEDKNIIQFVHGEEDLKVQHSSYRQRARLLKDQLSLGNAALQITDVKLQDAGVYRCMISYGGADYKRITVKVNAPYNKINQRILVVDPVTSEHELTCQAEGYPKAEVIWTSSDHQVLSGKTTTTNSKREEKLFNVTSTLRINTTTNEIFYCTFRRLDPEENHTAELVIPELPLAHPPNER

| SMILES | IC50 (PD-1/PD-L1) | EC50 (PD-1/PD-L1 interaction) |
| --- | --- | --- |
| Cc1c(COc2nc(OCc3cnnn3Cc3ccccc3)c(CNC[C@@H](O)CC(=O)O)cc2Br)cccc1-c1cccc(COc2nc(OCc3cnnn3Cc3ccccc3)c(CNC[C@@H](O)CC(=O)O)cc2Br)c1C [Example 139, (3S,3′S)-4,4′-((((((2,2′-dimethyl-[1,1′-biphenyl]-3,3′-diyl)bis(methylene))bis(oxy))bis(2-((1-benzyl-1H-1,2,3-triazol-5-yl)methoxy)-5-bromopyridine-6,3-diyl))bis(methylene))bis(azanediyl))bis(3-hydroxybutanoic acid)] | 5.1 nM | 23900 nM |
| Cc1c(COc2nc(OCC3CC3)c(CNC[C@@H](O)CC(=O)O)cc2Br)cccc1-c1cccc(COc2nc(OCC3CC3)c(CNC[C@@H](O)CC(=O)O)cc2Br)c1C [Example 141, (3S,3′S)-4,4′-((((((2,2′-dimethyl-[1,1′-biphenyl]-3,3′-diyl)bis(methylene))bis(oxy))bis(5-bromo-2-(cyclopropylmethoxy)pyridine-6,3-diyl))bis(methylene))bis(azanediyl))bis(3-hydroxybutanoic acid)] | 3.6 nM | ≥ 50000 nM |
| Cc1c(COc2nc(OCC(F)(F)F)c(CNC[C@@H](O)CC(=O)O)cc2Br)cccc1-c1cccc(COc2nc(OCC(F)(F)F)c(CNC[C@@H](O)CC(=O)O)cc2Br)c1C [Example 154, (3S,3′S)-4,4′-((((((2,2′-dimethyl-[1,1′-biphenyl]-3,3′-diyl)bis(methylene))bis(oxy))bis(5-bromo-2-(2,2,2-trifluoroethoxy)pyridine-6,3-diyl))bis(methylene))bis(azanediyl))bis(3-hydroxybutanoic acid)] | 3.8 nM | ≥ 50000 nM |
| COc1cc(C(=O)N2CCc3c(-c4cccc5c4CCN5C(=O)c4ccc(CNC[C@@H](O)CC(=O)O)c(OC)c4)cccc32)ccc1CNC[C@@H](O)CC(=O)O [Example 180, (3S,3′S)-4,4′-(((([4,4′-biindoline]-1,1′-dicarbonyl)bis(2-methoxy-4,1-phenylene))bis(methylene))bis(azanediyl))bis(3-hydroxybutanoic acid)] | 4.6 nM | 24800 nM |
| O=C(O)C[C@H](O)CNCc1ccc(C(=O)N2CCc3c(-c4cccc5c4CCN5C(=O)c4ccc(CNC[C@@H](O)CC(=O)O)cc4)cccc32)cc1 [Example 181, (3S,3′S)-4,4′-(((([4,4′-biindoline]-1,1′-dicarbonyl)bis(4,1-phenylene))bis(methylene))bis(azanediyl))bis(3-hydroxybutanoic acid)] | 3.3 nM | 30900 nM |
| COc1nc(OCc2cccc(-c3cccc(COc4ccc(CNCCO)c(OC)n4)c3Cl)c2Cl)ccc1CNCCO [Example 186, 2,2′-((((((2,2′-Dichloro-[1,1′-biphenyl]-3,3′-diyl)bis(methylene))bis(oxy))bis(2-methoxypyridine-6,3-diyl))bis(methylene))bis(azanediyl))bis(ethan-1-ol)] | 18.8 nM | 1510 nM |
| Cc1c(COc2cc(OCc3cncc(C#N)c3)c(CNCCO)cc2Cl)cccc1-c1cccc(COc2cc(OCC3CC3)c(CNCCO)cc2Cl)c1C [Example 199, 5-((4-Chloro-5-((3′-((2-chloro-5-(cyclopropylmethoxy)-4-(((2-hydroxyethyl)amino)methyl)phenoxy)methyl)-2,2′-dimethyl-[1,1′-biphenyl]-3-yl)methoxy)-2-(((2-hydroxyethyl)amino)methyl)phenoxy)methyl)nicotinonitrile] | 188 nM | 2150 nM |
| Cc1c(COc2cc(OCc3cncc(C#N)c3)c(CNCCO)cc2Cl)cccc1-c1cccc(COc2cc(OCc3ccc(F)c(C#N)c3)c(CNCCO)cc2Cl)c1C [Example 200, 5-((4-Chloro-5-((3′-((2-chloro-5-((3-cyano-4-fluorobenzyl)oxy)-4-(((2-hydroxyethyl)amino)methyl)phenoxy)methyl)-2,2′-dimethyl-[1,1′-biphenyl]-3-yl)methoxy)-2-(((2-hydroxyethyl)amino)methyl)phenoxy)methyl)nicotinonitrile] | 138 nM | 893 nM |

These reach a lower IC50 (PD-1/PD-L1). Values come first.

| IC50 (PD-1/PD-L1) | EC50 (PD-1/PD-L1 interaction) | SMILES |
| --- | --- | --- |
| 0.5 nM | ≥ 50000 nM | COC(=O)COc1nc(OCc2cccc(-c3cccc(COc4nc(OCC(=O)OC)c(CNC[C@@H](O)CC(=O)O)cc4Br)c3C)c2C)c(Br)cc1CNC[C@@H](O)CC(=O)O [Example 150, (3S,3′S)-4,4′-((((((2,2′-dimethyl-[1,1′-biphenyl]-3,3′-diyl)bis(methylene))bis(oxy))bis(5-bromo-2-(2-methoxy-2-oxoethoxy)pyridine-6,3-diyl))bis(methylene))bis(azanediyl))bis(3-hydroxybutanoic acid)] |
| 2.2 nM | ≥ 50000 nM | C=CCOc1nc(OCc2cccc(-c3cccc(COc4nc(OCC=C)c(CNC[C@@H](O)CC(=O)O)cc4Br)c3C)c2C)c(Br)cc1CNC[C@@H](O)CC(=O)O [Example 151, (3S,3′S)-4,4′-((((((2,2′-dimethyl-[1,1′-biphenyl]-3,3′-diyl)bis(methylene))bis(oxy))bis(2-(allyloxy)-5-bromopyridine-6,3-diyl))bis(methylene))bis(azanediyl))bis(3-hydroxybutanoic acid)] |
| 2.3 nM | 34200 nM | Cc1nc(OCc2cccc(-c3cccc(COc4ccc(CNC[C@@H](O)CC(=O)O)c(C)n4)c3C)c2C)ccc1CNC[C@@H](O)CC(=O)O [Example 156, (3S,3′S)-4,4′-((((((2,2′-dimethyl-[1,1′-biphenyl]-3,3′-diyl)bis(methylene))bis(oxy))bis(2-methylpyridine-6,3-diyl))bis(methylene))bis(azanediyl))bis(3-hydroxybutanoic acid)] |
| 2 nM | 28100 nM | Cc1c(COc2ccc(CNC[C@@H](O)CC(=O)O)c(OCCN3CCOCC3)n2)cccc1-c1cccc(COc2ccc(CNC[C@@H](O)CC(=O)O)c(OCCN3CCOCC3)n2)c1C [Example 158, (3S,3′S)-4,4′-((((((2,2′-dimethyl-[1,1′-biphenyl]-3,3′-diyl)bis(methylene))bis(oxy))bis(2-(2-morpholinoethoxy)pyridine-6,3-diyl))bis(methylene))bis(azanediyl))bis(3-hydroxybutanoic acid)] |
| 2.8 nM | 310 nM | Cc1c(COc2cc(OCc3cncc(C#N)c3)c(CNC[C@@H](O)C(=O)O)cc2Cl)cccc1-c1cccc(COc2cc(OCc3cncc(C#N)c3)c(CNC[C@@H](O)C(=O)O)cc2Cl)c1C [Example 161, (2R,2′R)-3,3′-((((((2,2′-dimethyl-[1,1′-biphenyl]-3,3′-diyl)bis(methylene))bis(oxy))bis(5-chloro-2-((5-cyanopyridin-3-yl)methoxy)-4,1-phenylene))bis(methylene))bis(azanediyl))bis(2-hydroxypropanoic acid)] |
| 0.6 nM | 343 nM | Cc1c(COc2cc(OCc3cncc(C#N)c3)c(CNCc3nnn[nH]3)cc2Cl)cccc1-c1cccc(COc2cc(OCc3cncc(C#N)c3)c(CNCc3nnn[nH]3)cc2Cl)c1C [Example 163, 5,5′-((((((2,2′-dimethyl-[1,1′-biphenyl]-3,3′-diyl)bis(methylene))bis(oxy))bis(6-((((1H-tetrazol-5-yl)methyl)amino)methyl)-4-chloro-3,1-phenylene))bis(oxy))bis(methylene))dinicotinonitrile] |
| 0.2 nM | 500 nM | Cc1c(COc2cc(OCc3cncc(C#N)c3)c(CNCCCC(=O)O)cc2Cl)cccc1-c1cccc(COc2cc(OCc3cncc(C#N)c3)c(CNCCCC(=O)O)cc2Cl)c1C [Example 164, 4,4′-((((((2,2′-dimethyl-[1,1′-biphenyl]-3,3′-diyl)bis(methylene))bis(oxy))bis(5-chloro-2-((5-cyanopyridin-3-yl)methoxy)-4,1-phenylene))bis(methylene))bis(azanediyl))dibutyric acid] |
| 0.1 nM | 20600 nM | Cc1c(COc2ccc(CNC[C@@H](O)CC(=O)O)cc2C#N)cccc1-c1cccc(COc2ccc(CNC[C@@H](O)CC(=O)O)cc2C#N)c1C [Example 177, (3S,3′S)-4,4′-((((((2,2′-dimethyl-[1,1′-biphenyl]-3,3′-diyl)bis(methylene))bis(oxy))bis(3-cyano-4,1-phenylene))bis(methylene))bis(azanediyl))bis(3-hydroxybutanoic acid)] |
| 0.6 nM | 3200 nM | COc1nc(OCc2cccc(-c3cccc(COc4ccc(CNC[C@@H](O)CC(=O)O)c(OC)n4)c3Cl)c2Cl)ccc1CNC[C@@H](O)CC(=O)O [Example 187, (3S,3′S)-4,4′-((((((2,2′-Dichloro-[1,1′-biphenyl]-3,3′-diyl)bis(methylene))bis(oxy))bis(2-methoxypyridine-6,3-diyl))bis(methylene))bis(azanediyl))bis(3-hydroxybutanoic acid)] |
| 0.3 nM | 1550 nM | COc1nc(OCc2cccc(-c3cccc(COc4ccc(CNC[C@H](O)CC(=O)O)c(OC)n4)c3Cl)c2Cl)ccc1CNC[C@H](O)CC(=O)O [Example 188, (3R,3′R)-4,4′-((((((2,2′-Dichloro-[1,1′-biphenyl]-3,3′-diyl)bis(methylene))bis(oxy))bis(2-methoxypyridine-6,3-diyl))bis(methylene))bis(azanediyl))bis(3-hydroxybutanoic acid)] |
